Experimental data as given in patent US10947229B2, “Dimethyl amino azetidine amides as JAK inhibitors” (THERAVANCE BIOPHARMA R&D IP, LLC, priority 2018, dated 2021).

How the values were obtained:
[1] = system: IL-27 induced CXCL9 secretion; experiment: Inhibition of IL-27 induced CXCL9 in human 3D airway cultures; format: cell-based; details: 192 h, 8 days, 4 donors
Description: (§1) EpiAirway tissue cultures were obtained from Mattek (AIR-100). Cultures were derived from asthmatic donors. In a cell culture insert, human derived tracheal/bronchial epithelial cells were grown and differentiated on a porous membrane support, allowing an air-liquid interface with warmed culture medium below the cells and a gaseous test atmosphere above. Tissues were cultured in maintenance media ([…]) in a 37° C., 5% CO2 humidified incubator. Four donors were tested. On Day 0, tissue cultures were treated with test compounds in liquid interface at 10 μM, 1 μM and/or 0.1 μM. Compounds were diluted in dimethyl sulfoxide (DMSO, Sigma) to a final concentration of 0.1%. DMSO at 0.1% was used as a vehicle control. […] Tissue cultures were maintained for 8 days. Media was replaced every 2 days with fresh media containing compounds and IFNγ or IL-27. On Day 8, tissue cultures and supernatants were collected for analysis. Supernatant samples were assayed for CXCL10 (IP-10) and CXCL9 (MIG) using luminex analysis (EMD Millipore). Data is expressed as % Inhibition+/-standard deviation (±STDV). Percent inhibition was determined by compound inhibitory potency against IFNγ or IL-27 induced CXCL10 or CXCL9 secretion compared to vehicle treated cells. Data is the average from 4 donors.

[2] = system: GM-CSF stimulated STAT5 phosphorylation in CD14+ monocytes; experiment: Cellular JAK potency assay: inhibition of GM-CSF-induced pSTAT5; format: cell-based; details: Monocyte; CD14+ monocytes from human whole blood; read-out: pIC50, inhibition of GM-CSF-induced pSTAT5 (converted)
Description: The potency of test compounds for inhibition of granulocyte-macropage colony-stimulating factor (GM-CSF) stimulated STAT5 phosphorylation was measured in CD14-positive (CD14+) monocytes derived from human whole blood (Stanford Blood Center) using flow cytometry. Because GM-CSF signals through JAK, this assay provides a measure of JAK cellular potency. Monocytes were identified using a fluorescein isothiocyanate (FITC) conjugated anti-CD14 antibody (Clone RM052, Beckman Coulter), and an Alexa Fluor 647 conjugated anti-pSTAT5 antibody (pY694, BD Biosciences) was used to detect STAT5 phosphorylation. Human peripheral blood mononuclear cells (PBMC) were isolated from human whole blood of healthy donors using a ficoll gradient. […] Cells were washed twice with FACS buffer, and then re-suspended in 1:10 […] Alexa Fluor 647:FACS buffer (100 μL) for 30 min at RT in the dark, washed twice in FACS buffer, and analyzed using a MACSQuant flow cytometer (Miltenyi). To determine the inhibitory potency of the test compound, the median fluorescent intensity (MFI) of pSTAT5 was measured in CD14+ monocytes. IC50 values were determined from analysis of the inhibition curves of MFI vs compound concentration. Data are expressed as pIC50 (negative decadic logarithm IC50) values.

[3] = Lung and plasma drug concentration in the IL-13 pSTAT6 mouse model; format: in vivo; details: lung to plasma ratio at 5 hours
Description: Adult Balb/c mice from Harlan were used in the assay. […] Animals were placed in lateral recumbency post dose and monitored for full recovery from anesthesia before being returned to their home cage. Four hours later, animals were once again briefly anesthetized and challenged with either vehicle or IL-13 (0.03 μg total dose delivered, 50 μL total volume) via oral aspiration before being monitored for recovery from anesthesia and returned to their home cage. One hour after vehicle or IL-13 administration, whole blood and lungs were collected for both pSTAT6 detection in lung homogenates using a Perkin Elmer AlphaLISA® SureFire® Ultra™ HV p-STAT6 (Tyr641) assay kit and for total drug concentration analysis in both lung and plasma. Blood samples were centrifuged (Eppendorf centrifuge, 5804R) for 4 minutes at approximately 12,000 rpm at 4° C. to collect plasma. […] Plasma and lung levels of test compound were determined by LC-MS analysis against analytical standards constructed into a standard curve in the test matrix. A lung to plasma ratio was determined as the ratio of the lung concentration in ng/g to the plasma concentration in ng/mL at 5 hours.

[4] = system: IFNγ induced CXCL9 secretion; experiment: Inhibition of IFNγ induced CXCL9 in human 3D airway cultures; format: cell-based; details: 192 h, 8 days, 4 donors
Description: as §1

CCc1cc(O)ccc1-c1ccc2c(-c3nc4c([nH]3)CN(C(C)C)[C@H](C(=O)N3CC(N(C)C)C3)C4)n[nH]c2c1 [Compound 1, (S)-(3-(dimethylamino)azetidin-1-yl)(2-(6-(2-ethyl-4-hydroxyphenyl)-1H-indazol-3-yl)-5-isopropyl-4,5,6,7-tetrahydro-3H-imidazo[4,5-c]pyridin-6-yl)methanone]
inhibition at 0.1 µM ([1]; 0.1 μM): 52%
inhibition at 1 µM ([1]; 1 μM): 97%
inhibition at 10 µM ([1]; 10 μM): 100%
IC50 [2]: 126 nM
exposure in lung versus plasma (in words) [3]: significantly more exposure in the lung than exposure in plasma
inhibition at 0.1 µM ([4]; 0.1 μM): 16%
inhibition at 1 µM ([4]; 1 μM): 93%
inhibition at 10 µM ([4]; 10 μM): 100%
